Results taken from patent US10233205B2, “Magnetic resonance imaging contrast agent capable of detecting hydrogen peroxide and reducing reactive oxygen species” (Auburn University, priority 2015, dated 2019).

Assay: DPPH free radical scavenging assay
Type: biochemical
Details: Example 1
Description: An alternative assessment of the Mn(II) complexes' anti-oxidant properties relied upon the DPPH assay. Aqueous solutions of either 1, 2, or ascorbic acid were added to a solution of 0.10 mM DPPH in MeOH, such that the final reaction volume was 0.2 mL. Samples were incubated in the dark for 30 min at room temperature. Spectrophotometric measurements were subsequently performed at 517 nm using a Molecular Devices Spectramax Plus. This wavelength corresponds to the λmax of the reduced product. Experiments were performed in triplicate and repeated twice.
The anti-oxidant properties of 1 and 2 were also assessed using the DPPH assay (DPPH=2,2-diphenyl-1-picrylhydrazyl radical hydrate), which evaluates the ability of a compound to donate hydrogen atoms to DPPH to yield the corresponding hydrazine. The anti-oxidants were added to DPPH and incubated in the dark for 30 min at room temperature. Spectroscopic measurements were performed at 517 nm. The data were normalized to the absorbance in the presence of vehicle. All experiments were performed in triplicate and repeated twice.
Complex 3 is also a competent […] as assessed by the DPPH assay (FIG. 33), which tests the abilities of compounds to donate hydrogen atoms to 2,2-diphenyl-1-picrylhydrazyl radical hydrate. […] The data were normalized to the absorbance in the presence of vehicle. […] The hydrazine product is monitored by UV/vis.

Compound: CC#N.Cc1ccc(O)c(CN(CCN(Cc2ccccn2)Cc2ccccn2)Cc2ccccn2)c1.[Mn+2].[O-][Cl+3]([O-])([O-])[O-].[O-][Cl+3]([O-])([O-])[O-] [Complex 2, reference compound]
- DPPH reduction: fails to reduce DPPH to a noticeable degree
